Assay results reported in patent EP1949899A1, “Metal salophen complexes use in prevention and treatment of cancer” (Freie Universität Berlin, priority 2007, dated 2008).
Like-named read-outs stand apart in the source and are kept apart here.

Columns and labels:
[1] = system: MCF-7-cells; assay: Concentration dependent cytotoxicity test (IC50) on MCF-7 cells; type: cell-based
Description: (§1) Measurement of IC50-values was performed as described by Ott, I. et al., Journal of Medicinal Chemistry, 2005, 48 (2): 622-629. But unlike described in the literature, the experiments with MCF-7-cells were stopped after 96 hours and experiments with MDA-MB-231-cells were stopped after 72 hours.

[2] = system: MDA-MB-231-cells; assay: Concentration dependent cytotoxicity test (IC50) on MDA-MB-231 cells; type: cell-based
Description: as §1

[3] = system: LNCaP-FGC-cells; assay: Time dependent test (crystal violet assay) on LNCaP-FGC-cells; type: cell-based
Description: The time dependent tests were performed according to Reile, H. et al.: "Computerized Determination of Growth Kinetic Curves and Doubling Times from Cells in Microculture", Analytical Biochemistry, 1990, 187 (2): 262-267; Bernhardt, G. et al.: "Standardized kinetic microassay to quantifiy differential chemosensitivity on the basis of proliferative activity", Journal of Research Clin. Oncol., 1992, 118: 35-43 and Gust, R. et al.: "Development of Cobalt(3,4-diarylsalen) Complexes as Tumor Therapeutics", Journal of Medicinal Chemistry, 2004, 47 (24): 5837-5846.
Determining the cell mass in the crystal violet assay the interpretation of the received values was the following: […]

[4] = system: MCF-7 cells; settings: Ghezzi, A. et al., 2004; cited from earlier work
[5] = system: supercoiled plasmid DNA (pSK Bluescript); assay: DNA cleavage reactions with plasmid DNA on agarose gels; type: biochemical; settings: for DNA cleaving effect: 1 h at 37 °C
Description: General procedure for DNA cleavage reactions with plasmid DNA on agarose gels
100 µl reaction mixture contained 1 µg of supercoiled plasmid DNA (pSK Bluescript) in a tris-HCI buffer at pH 7.0, 1 µl of iron complex solution at the desired concentration (10 mM to 10 µM in DMSO) and in some cases 1 µl of 100 µM dithiothreitol solution resp. 1 µl of 1 mM mercaptoethanol solution. After incubation at 37 °C for the indicated time, 1 µl of loading buffer (0.25 % bromophenol blue, 0,25 % xylene cyanol, 30 % glycerin in H2O) was added to 5 µl reaction mixture (containing 50 ng plasmid DNA) and subsequently loaded onto a 0.8 % agarose gel. One µl of 1 kb-DNA-ladder (NewEnglandBiolabs, #N3232L) was loaded for estimation of size and amount of loaded DNA sample. The electrophoresis was carried out for ~ 45 min at 100 V in TBE buffer at pH 8.3. Gels were stained with etidium bromide (1 µg/ml) and photographed under 254 nm UV light.

[6] = system: MCF-7 cells; assay: Time dependent test (crystal violet assay) on MCF-7 cells; type: cell-based
[7] = system: MDA-MB-231 cells; assay: Time dependent test (crystal violet assay) on MDA-MB-231 cells; type: cell-based
[8] = system: HeLa cells; assay: Time dependent test (crystal violet assay) on HeLa cells; type: cell-based
[9] = Homo sapiens, MCF7, MCF-7, stopped after 96 hours, read-out: IC50
[10] = Homo sapiens, MDA-MB-231, stopped after 72 hours, read-out: IC50
[11] = MCF-7, stopped after 96 hours, read-out: IC50
[12] = MDA-MB-231, stopped after 72 hours, read-out: IC50
[13] = higher concentrations (1-10 µM)
[14] = low concentrations (0,1 µM), in the presence of a reducing agent

## O=c1[nH]cc(F)c(=O)[nH]1 [5-fluorouracil]
[1]; [9]
  IC50: 4.8 µM
[2]; [10]
  IC50: 9.6 µM

## N.N.O=C([O-])C1(C(=O)[O-])CCC1.[Pt+2] [Carboplatin]
[3]; 0.5 µM
  minimum T/Ccorr- resp. τ-value: 69.5%
[3]; 1 µM
  minimum T/Ccorr- resp. τ-value: 55.5%
[3]; 5 µM
  minimum T/Ccorr- resp. τ-value: 19.6%
[4]
  enrichment in comparison with the outer medium: 1,6

## C#CCOC(=O)c1ccccc1OC(C)=O.[C-]#[O+].[C-]#[O+].[C-]#[O+].[C-]#[O+].[C-]#[O+].[C-]#[O+].[Co].[Co] [Co-Ass, Hexacarbonyl[2-propyn-1-ylacetylsalicylat]dicobalt]
[1]; [11]
  IC50: 1.4 µM
[2]; [12]
  IC50: 1.9 µM

## [Fe+2].[O-]c1ccccc1C=Nc1ccccc1N=Cc1ccccc1[O-] [Fe(II)salophen, [N,N'-Bis(salicylidene)phenylene-1,2-diamine]-iron(II)]
[5]; [13]
  DNA cleaving effect: DNA double strand breakages
[5]; [14]
  DNA cleaving effect: DNA single strand breakages
[1]; [11]
  IC50: 0.4 µM
[2]; [12]
  IC50: 0.1 µM
[6]; MCF-7, 0.05 µM
  minimum T/Ccorr- resp. τ-value: 96.5%
[6]; MCF-7, 0.1 µM
  minimum T/Ccorr- resp. τ-value: 96.7%
[6]; MCF-7, 0.5 µM
  minimum T/Ccorr- resp. τ-value: 35.7%
[6]; MCF-7, 1 µM
  minimum T/Ccorr- resp. τ-value: -35.9%
[7]; MDA-MB-231, 0.05 µM
  minimum T/Ccorr- resp. τ-value: 90.0%
[7]; MDA-MB-231, 0.1 µM
  minimum T/Ccorr- resp. τ-value: 41.9%
[7]; MDA-MB-231, 0.5 µM
  minimum T/Ccorr- resp. τ-value: -19.1%
[7]; MDA-MB-231, 1 µM
  minimum T/Ccorr- resp. τ-value: -29.7%
[3]; 0.1 µM
  minimum T/Ccorr- resp. τ-value: 47.3%
[3]; 0.5 µM
  minimum T/Ccorr- resp. τ-value: 8.9%
[3]; 1 µM
  minimum T/Ccorr- resp. τ-value: -25.6%

## [Cl-].[Fe+3].[O-]c1ccccc1C=Nc1ccccc1N=Cc1ccccc1[O-] [Fe(III)salophen chloride, [N,N'-Bis(salicylidene)phenylene-1,2-diamine]-iron(III)-chloride]
[5]; [13]
  DNA cleaving effect: DNA double strand breakages
[5]; [14]
  DNA cleaving effect: DNA single strand breakages
[1]; [11]
  IC50: 0.3 µM
[2]; [12]
  IC50: 0.01 µM
[6]; MCF-7, 0.05 µM
  minimum T/Ccorr- resp. τ-value: 92.6%
[6]; MCF-7, 0.1 µM
  minimum T/Ccorr- resp. τ-value: 80.4%
[6]; MCF-7, 0.5 µM
  effect on cell mass (interpretation of T/Ccorr resp. τ): cytocide effect (T/Ccorr or τ < 0 %)
  minimum T/Ccorr- resp. τ-value: -23.4%
[6]; MCF-7, 1 µM
  minimum T/Ccorr- resp. τ-value: -50.8%
[7]; MDA-MB-231, 0.05 µM
  minimum T/Ccorr- resp. τ-value: 46.0%
[7]; MDA-MB-231, 0.1 µM
  minimum T/Ccorr- resp. τ-value: 66.2%
[7]; MDA-MB-231, 0.5 µM
  minimum T/Ccorr- resp. τ-value: -27.8%
[7]; MDA-MB-231, 1 µM
  minimum T/Ccorr- resp. τ-value: -40.8%
[8]; 0.1 µM
  minimum T/Ccorr- resp. τ-value: 36.2%
[8]; 0.5 µM
  minimum T/Ccorr- resp. τ-value: 52.1%
[8]; 1 µM
  minimum T/Ccorr- resp. τ-value: -26.0%
[3]; 0.1 µM
  minimum T/Ccorr- resp. τ-value: 34.4%
[3]; 0.5 µM
  minimum T/Ccorr- resp. τ-value: 3.6%
[3]; 1 µM
  minimum T/Ccorr- resp. τ-value: -19.5%

## CC(=O)[O-].CC(=O)[O-].[Fe+2] [Fe(OAc)2]
[1]; [11]
  IC50: > 50 µM
[2]; [12]
  IC50: > 50 µM

## [Cl][Fe]([Cl])[Cl] [FeCl3]
[1]; [11]
  IC50: > 100 µM
[2]; [12]
  IC50: > 100 µM

## N[C@@H](Cc1ccc(N(CCCl)CCCl)cc1)C(=O)O [Melphalan]
[1]; Homo sapiens, MCF7, 96 h
  IC50: 5.7 µM
[2]; Homo sapiens, MDA-MB-231, 72 h
  IC50: 3.9 µM

## O=C1[O][Pt]2([NH][C@@H]3CCCC[C@H]3[NH]2)[O]C1=O [Oxaliplatin]
[3]; 0.5 µM
  minimum T/Ccorr- resp. τ-value: 12.7%
[3]; 1 µM
  minimum T/Ccorr- resp. τ-value: -0.6%
[3]; 5 µM
  minimum T/Ccorr- resp. τ-value: -31.0%
[4]
  enrichment in comparison with the outer medium: sixfold

## N.N.[Cl][Pt][Cl] [cisplatin, reference compound]
[1]; [11]
  IC50: 2 µM
[2]; [12]
  IC50: 4 µM
[6]; MCF-7, 0.5 µM
  minimum T/Ccorr- resp. τ-value: 55.1%
[6]; MCF-7, 1 µM
  minimum T/Ccorr- resp. τ-value: 2.2%
[7]; MDA-MB-231, 0.5 µM
  minimum T/Ccorr- resp. τ-value: 79.7%
[7]; MDA-MB-231, 1 µM
  minimum T/Ccorr- resp. τ-value: 69.0%
[8]; 0.5 µM
  minimum T/Ccorr- resp. τ-value: 55.9%
[8]; 1 µM
  minimum T/Ccorr- resp. τ-value: 33.5%
[3]; 0.5 µM
  minimum T/Ccorr- resp. τ-value: 59.0%
[3]; 1 µM
  minimum T/Ccorr- resp. τ-value: 32.7%
[3]; 5 µM
  minimum T/Ccorr- resp. τ-value: 6.7%
[4]
  enrichment in comparison with the outer medium: fivefold

## Oc1ccccc1C=Nc1ccccc1N=Cc1ccccc1O [ligand, N,N'-bis(salicylidene)-phenylene-1,2-diamine, reference compound]
[5]; 1 h incubation at 37 °C, with or without additional reducing agents (DTT, 2-ME)
  DNA decomposition: not able to decompose DNA

## Nc1ccccc1N [o-phenylenediamine]
[1]; [9]
  IC50: 5.1 µM
[2]; [10]
  IC50: 23.5 µM
